Consider 5 molecules from patent US20110082133A1, “PYRIDONE COMPOUNDS” (priority 2008, published 2011).

Structures are written as SMILES.

Assay [1] concerns LPS-induced TNF-α production in THP-1 cells. Briefly: Inhibitory action on LPS-induced TNF-α production in THP-1 cells. It is filed as cell-based. As to conditions: Homo sapiens, 3 hours after LPS, ELISA. The protocol: Human monocytic cell line THP-1 cells were suspended in an assay medium (PRMI-1640 containing 10% fetal bovine serum, 100 unit/mL penicillin G sodium, and 100 μg/mL streptomycin sulfate), and seeded onto a 96-well plate at 1×10^5 cells/well. 50 μL/well of an assay medium containing a test compound was added thereto, followed by incubation at 37° C. for 30 minutes. Further, 50 μL/well of an assay medium containing 1 to 5 μg/mL of LPS was added thereto, and the TNF-α concentration in the assay medium of each well after 3 hours was measured. The measurement was carried out by means of a standard ELISA method. A 96-well plate which had been coated overnight with an anti-human TNF monoclonal antibody (clone: MAb1) (manufactured by Becton, Dickinson and Company) as a capture antibody was washed with a wash buffer (PBS containing 0.05% Tween-20), and PBS containing 10% fetal bovine serum was incubated at room temperature for 1 hour to perform blocking. After washing with a wash buffer, 100 μL/well of the assay medium to be measured was incubated at 4° C. overnight. As the standard material to be measured, a recombinant human TNF (manufactured by Becton, Dickinson and Company) was used. After washing with a wash buffer, 100 μL of a biotinylated anti-human TNF monoclonal antibody (clone: MAb11) as a detection antibody was treated at room temperature for 1 hour. After washing with a wash buffer, it was treated with 100 μL/well of an HRP-labeled Streptavidin (manufactured by Zymed Laboratories, Inc.) at room temperature for 30 minutes, and washed again. Treatment was conducted using 100 μL/well of a TMB (3,3′,5,5′-tetramethylbenzidine) substrate liquid at room temperature for 20 minutes in a dark room. A 2 M sulfuric acid was added thereto at 50 μL/well to stop the reaction, and an absorbance at 450 nm/570 nm was measured by means of a plate reader SPECRA max (manufactured by Molecular Devices Inc.).
For orientation: In an ELISA, binding on a coated surface is turned into a signal by an enzyme label.

The subject of another assay is hindlimb blood flow. Briefly: Hindlimb blood flow increasing action in anesthetized rat. It is filed as in vivo, Wistar male rats. As to conditions: 2 hours after administration, solvent group set as 100%. The protocol:
Wistar male rats were used. The test compound was orally administered, and after 2 hours, the hindlimb blood was measured using a laser blood flow imaging apparatus (PIM II, manufactured by Integral Corporation). At 20 minutes before the measurement, 60 mg/kg of pentobarbital was intraperitoneally administered to conduct anesthesia.

Assay [2] deals with T1, rat EP4 receptor (Rattus norvegicus, UniProt P43114). Briefly: Evaluation test on EP4 receptor affinity in rat ([3H]PGE2 receptor binding test, membrane fraction). Also on record: expressed in transfected cells; host or cells: HEK293 cells, transient transfection (Lipofectamine 2000); membrane fraction used. As to conditions: [3H]PGE2 0.3 nM, membrane fraction of rat EP4 expressing HEK293 cells. The protocol: A rat EP4 receptor cDNA was subcloned into an expression vector (pcDNA3.1-V5-His-topo, manufactured by Invitrogen Corporation) to prepare a rat EP4 expression vector. HEK293 cells were cultured in a collagen type I-treated 15 cm dish (manufactured by Asahi Techno Glass Co. Ltd.) to a confluence of 70%. An Opti-MEM culture medium at 1.2 mL/dish and a transfection reagent (Lipofectamine 2000, manufactured by Invitrogen Corporation) at 60 μL/dish were mixed, followed by being left to stand at room temperature for 5 minutes. Then, the rat EP4 receptor expression vector at 15 μg/dish was added thereto, followed by being left to stand at room temperature for 30 minutes. The liquid mixture of the transfection reagent was added into the dish, followed by culturing for 20 to 24 hours. The cell culture was carried out in a CO2 incubator (37° C., 5% CO2).
The culture medium was removed by suction, 10 mL of cooled PBS was added thereto per 15 cm dish, and the cells were scraped using a cell scraper. After washed with cooled PBS (1,200 rpm, 4° C., 5 minutes), suspended in 6 mL/dish of cooled 20 mM Tris-HCl (pH 7.4; manufactured by Nacalai Tesque Inc., 5 mM EDTA included) and homogenized using a Polytron, the homogenate was centrifuged (26,000 rpm, 20 minutes, 4° C.). The obtained precipitate was resuspended in cooled 20 mM Tris-HCl and homogenized again using a Polytron, and the homogenate was centrifuged (26,000 rpm, 20 minutes, 4° C.). The obtained precipitate was resuspended in 50 mM HEPES (pH 7.5; manufactured by Dojindo Laboratories) at 1 mL per dish, homogenized using a Polytron, and freeze-stored at −80° C. as a membrane fraction. At this time, a part thereof was used for the measurement of the protein concentration. Measurement of the protein concentration was carried out using a Protein assay stain (manufactured by Bio-Rad Laboratories) in accordance with a standard Protocol as appended in duplicate.
[^3H]PGE2 50 μL (final concentration 0.3 nM; manufactured by Perkin Elmer Co., Ltd.), 100 μL (20 μg/well) of the membrane fraction prepared from the rat EP4 expression cell, and 50 μL of a test compound were mixed in a 96-well microplate (manufactured by Sumitomo Bakelite Co., Ltd.), incubated at room temperature for 1 hour, then filtered by suction on a microplate (UniFilter-96 GF/B, manufactured by Perkin Elmer Co., Ltd.) using a cell harvester (FilterMate Harvester, manufactured by Perkin Elmer Co., Ltd.), and washed three times with 300 μL/well of a cooled assay buffer (50 mM HEPES, 10 mM MgCl2). Dilution of [^3H]PGE2 and the membrane fraction was carried out using the assay buffer, and dilution of the test compound and the unlabeled PGE2 was carried out using dimethyl sulfoxide and the assay buffer. The UniFilter-96 GF/B was treated by preliminarily washing twice with 200 μL/well of the cooled assay buffer. The UniFilter-96 GF/B after filtration was dried in a dryer overnight, 50 μL/well of a liquid scintillation cocktail (MicroScint20, manufactured by Perkin Elmer Co., Ltd.) was added thereto, and the radioactivity was then measured using a liquid scintillation counter for a microplate (TopCount, manufactured by Perkin Elmer Co., Ltd.). For measurement of the non-specific binding, an unlabeled PGE2 (final concentration 1 μM; manufactured by Cayman Chemical Company) was added. All of the measurements were carried out in duplicate, and the specific binding amount was determined by subtracting the non-specific binding amount from the total binding amount.
According to the test method as described above, the rat EP4 receptor affinity (Ki) of the compound of the formula (I) was measured. […] In this connection, Ex means Example Compound number.

Assay [3] deals with T1, rat EP4 receptor. In words: EP4 receptor agonistic action in rat (cAMP increasing action in rat EP4 receptor expression CHO-K1 cells). It is filed as cell-based. Particulars: cAMP increasing action by 1 μM PGE2 taken as 100%. Also on record: expressed in transfected cells. The protocol:
The agonistic activity was evaluated by the cAMP increasing action in the rat EP4 receptor expression cells. The rat EP4 receptor expression vector was introduced into CHO-K1 cells (American Type Culture Collection) to prepare a rat EP4 receptor stable expression cell line. These cells were seeded onto a 96-well microplate at 2×10^4 cell/well, and used for the experiment the next day. The culture medium of each well was removed by suction, 100 μL/well of an assay culture medium (2 μM indomethacin, 0.1% bovine serum albumin-containing α-MEM) was added thereto, and incubated at 37° C. for 1 hour. The culture medium was removed again by suction, and replaced with 100 μL/well of an assay culture medium comprising a test compound and 1 mM IBMX (3-isobutyl-1-methylxanthine). After incubating at 37° C. for 30 minutes, the culture medium was removed by suction, 100 μL/well of a cell lysate (0.2% Triton-X100-containing phosphate buffer physiological saline) was put thereinto, and the plate was shaken for 10 minutes. Using a cAMP femto 2 kit (manufactured by Cis Bio International), the cAMP concentration in the cell lysate was measured. Further, the cAMP increasing action (%) was calculated with the cAMP increasing action by 1 μM PGE2 was taken as 100%.

T1 sequence (P43114 whole entry): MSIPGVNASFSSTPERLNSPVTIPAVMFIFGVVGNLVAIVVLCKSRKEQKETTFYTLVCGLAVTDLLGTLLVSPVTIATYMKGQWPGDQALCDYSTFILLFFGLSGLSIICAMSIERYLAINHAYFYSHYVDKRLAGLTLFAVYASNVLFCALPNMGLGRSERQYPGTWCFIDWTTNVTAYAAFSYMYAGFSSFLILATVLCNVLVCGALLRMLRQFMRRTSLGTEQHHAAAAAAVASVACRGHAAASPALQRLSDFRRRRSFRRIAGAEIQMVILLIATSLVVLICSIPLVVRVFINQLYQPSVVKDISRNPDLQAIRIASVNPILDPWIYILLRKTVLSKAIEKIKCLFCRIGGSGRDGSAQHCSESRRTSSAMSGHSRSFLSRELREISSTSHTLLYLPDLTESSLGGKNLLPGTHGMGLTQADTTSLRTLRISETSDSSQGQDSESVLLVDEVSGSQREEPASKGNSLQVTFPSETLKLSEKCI

Take `CN(Cc1c(Cl)cc(Cl)c(=O)n1CCc1ccc(C(=O)O)cc1)c1cccc(C(F)(F)F)c1` [Example 159]: the IC50 (in general, the point on the concentration scale where inhibition reaches its midpoint) in assay [1] was found to be 2.7 nM. Moreover, the “Blood flow relative to the group administered with the solvent” value with hindlimb blood flow (dose 0.1 mg/kg oral) was 122%. At rat EP4 receptor [2], the Ki (usually a measure of affinity in units of concentration, obtained from inhibition or displacement) came out at 3.3 nM.
Consider `CCc1cccc(N(C)Cc2c(Cl)cc(Cl)c(=O)n2CCc2ccc(C(=O)O)cc2)c1` [Example 106], for which the “Blood flow relative to the group administered with the solvent” value with hindlimb blood flow (dose 0.3 mg/kg oral) was found to be 126%. Further, on rat EP4 receptor [2], the Ki stood at 28 nM.
Take `CCOc1ccc2c(c1)N(Cc1c(Cl)cc(Cl)c(=O)n1CCc1ccc(C(=O)O)cc1)CC2` [Example 10, 4-(2-{3,5-dichloro-6-[(6-ethoxy-2,3-dihydro-1H-indol-1-yl)methyl]-2-oxopyridin-1(2H)-yl}ethyl)benzoic acid]: the “Blood flow relative to the group administered with the solvent” value in the assay on hindlimb blood flow (dose 0.3 mg/kg oral) is listed as 124%. In addition, the Ki at rat EP4 receptor [2] stood at 3.2 nM.
As for `CCC[C@H]1CCCN1Cc1c(Br)ccc(=O)n1CCc1ccc(C(=O)O)cc1` [Example 207], the “Blood flow relative to the group administered with the solvent” value with hindlimb blood flow (dose 1 mg/kg oral) was 140%.
For `CCC[C@H]1CCCN1Cc1c(Cl)cc(Cl)c(=O)n1CCc1ccc(-c2n[nH]c(=O)o2)cc1` [Example 208], the “cAMP increasing action (%) at 10 μM” value on rat EP4 receptor [3] came out at 83%. On rat EP4 receptor [2], this molecule had a Ki of 2.9 nM.
